Consider 19 compounds from paper PMC8037809, “Biomimetic Chromatographic Studies Combined with the Computational Approach to Investigate the Ability of Triterpenoid Saponins of Plant Origin to Cross the Blood–Brain Barrier” (International Journal of Molecular Sciences, 2021).

Like-named read-outs stand apart in the source and are kept apart here.

On the set-up of data set [1]: method as in earlier work. The note with it: experimentally obtained; QSAR training and test sets; cited from earlier work.
Data set [2] is described as follows: biomimetic chromatography (BMC, IAM, CHOL) with the QSAR equation, compared with computational logBB. As to conditions: for ability to cross the BBB (conclusion): from biomimetic and computational studies. From the text: To calculate the logBB values for the tested saponins, the QSAR model previously obtained was used. In this QSAR predictive model the BBB penetration potential was correlated with the lipophilic properties (logPow), excess molar refraction (E), the difference between the logarithms of n-octanol/water and cyclohexane/water partition coefficients values (ΔlogP) being the hydrogen-bonding potential:logBB = −0.114 − 0.098 ΔlogP + 0.278 logPow + 0.218E(2)
Chromatographic biomimetic methods, including IAM, BMC, and CHOL, were used to determine BBB permeability of the tested triterpenoid saponins. For this purpose, the values of logkw, being the logarithm of retention factor extrapolated to pure water, were determined. These values were compared with the logBB values calculated in silico and those obtained using the QSAR model (Equation (2)). Logkw is recognized to be an alternative to the logPow lipophilicity descriptor [96]. On the other hand, lipophilicity is one of the most important features influencing the ability of substances to cross biological barriers.
Moreover, for the micellar biomimetic studies (BMC), Foley’s equation [97] (Equation (3)) was used to calculate important physicochemical parameters, i.e., the analyte–micelle association constant (KMA) and the partition coefficient of the analyte between the stationary phase and water (Psw). These parameters can describe possible interactions in the micellar system since the Brij35 micelle can be treated as a simple model of a biological barrier. (3) 1/k= KMA/PSWΦCM+ 1/PSWΦ where k is the retention factor, CM is the concentration of micelles, KMA is the analyte–micelle association constant, PSW is the partition coefficient of the analyte between the stationary phase and water, and Φ is the volume ratio of the stationary phase to the mobile phase volume.
As mentioned above the logkw parameter, obtained from the biomimetic chromatographic systems, is recognized to be an alternative to the logarithm of the n-octanol/water partition coefficient (logPow) lipophilicity descriptor. Therefore, logkw-BMC, logkw-IAM, and logkw-CHOL values were used for the calculation of logBB based on the QSAR equation (Equation (2)), instead of the logPow parameter. The values of logBB-BMC, logBB-IAM, and logBB-CHOL were thus calculated. In Figure 2 the above-mentioned logBB values and logBB in silico calculated using the ACD/Percepta software, as well as those of logKMA that can be treated as an equivalent to the logBB parameter, are presented.
The solutions of analytical standards of the studied triterpenoid saponins were prepared in methanol (Merck, Darmstadt, Germany; p.a.) at a concentration of 1 mg/mL. […] In the research each system was optimized previously. In the IAM and CHOL studies, acetonitrile-phosphate buffer solutions (0.3; 0.4; 0.5; 0.6 v/v; pH 7.4) were used as mobile phases. In the case of BMC analysis, the buffered solution of Brij35 (0.075; 0.1; 0.125; 0.15 mol/dm^3; pH 7.4) was used as the mobile phase with the addition of isopropanol as an organic modifier (7% v/v). The buffer was prepared from the solutions of Na2HPO4 and citric acid (0.01 mol/dm^3) and the pH 7.4 value was fixed before the preparation of the mobile phases.
The following stationary phases were employed: IAM.PC.DD2 100 × 4.6 mm i.d., 10 µm (Regis Chemicals Company, Morton Grove, IL, USA); Cosmosil Cholester, 75 × 2 mm i.d., 2.5 µm (Genore, Warsaw, Poland); Purosphere RP-18e (ODS), 125 × 4 mm i.d., 5 µm (Merck, Darmstadt, Germany). The flow rates were established as follows: 1.3 mL/min (IAM), 0.4 mL/min (CHOL), and 1 mL/min (BMC). The tested saponins were detected with UV light at 254 nm. All measurements were made at 25 °C. The dead time values were measured from the non-retained compound (citric acid) peaks. All reported logkw values are the average of at least three independent measurements.

In data set [3] the test system is memory deficits and anxiety induced by Aβ25-35. As to conditions: rats, Aβ25-35 into the lateral ventricles; cited from earlier work.
Details of data set [4]: method as in doi:10.1556/1326.2017.00147. The note with it: rat, intragastric administration of the extract, postmortem; cited from earlier work.
Data set [5] deals with hippocampal CA1 region pyramidal neurons. Also noted: method as in PMID 19433075. The note with it: ischemia/reperfusion; cited from earlier work.
For data set [6], the system named is ethanol-induced memory impairment. Also on record: method as in PMID 18521966. As to conditions: mice; cited from earlier work.

For the compound `CN1CC[C@]23c4c5ccc(O)c4O[C@H]2[C@@H](O)C=C[C@H]3[C@H]1C5.Cl` [52-26-6], the logBB result in data set [1] was “–0.16”.

With `C=CCC1(C(C)CCC)C(=O)NC(=O)NC1=O` (stereo not shown) [76-73-3], the logBB in data set [1] was 0.2. Turning to `CNC(C)CC1CCCCC1` (stereo not shown) [101-40-6], in data set [1], the logBB is 1.08.

Consider `CN1C(=O)CN=C(c2ccccc2)c2cc(Cl)ccc21` [439-14-5], for which the logBB in data set [1] was 0.56. For the compound `Cc1cc(Cl)ccc1NC1=NCCN1` [4201-26-7], in data set [1], the logBB is reported as 0.14. Consider `Clc1ccc(NC2=NCCN2)c(Cl)c1` [23830-88-8], for which, in data set [1], the logBB is 0.16. In the case of `CC(C)NCC(O)COc1ccc(CC(N)=O)cc1` (stereo not shown) [29122-68-7], the logBB entry in data set [1] was “–1”. Regarding `Cc1ccccc1NC1=NCCN1` [36318-56-6], in data set [1], the logBB was 0.04. Regarding `Brc1cc(Br)c(NC2=NCCN2)c(Br)c1` [38941-33-2], the logBB in data set [1] is recorded as 0.58. On to `CN(C)C(=O)C(CCN1CCC(O)(c2ccc(Cl)cc2)CC1)(c1ccccc1)c1ccccc1` [53179-11-6], for which the logBB in data set [1] is reported as 0.77. Regarding `CC(C)NCC(O)COc1ccc(CCOCC2CC2)cc1` (stereo not shown) [63659-18-7], the logBB in data set [1] is 0.39. As for `COc1ccc2nc([S+]([O-])Cc3ncc(C)c(OC)c3C)[nH]c2c1` (stereo not shown) [73590-58-6], the logBB result in data set [1] is “–0.82”. In the case of `Cc1ccc(Cc2cnc(NCCSCc3ccc(CN(C)C)o3)[nH]c2=O)cn1` [83903-06-4], the logBB result in data set [1] is “–1.06”. For the compound `O=C(CCC1CCN(Cc2ccccc2)CC1)c1ccc2c(c1)NCCCC2` [142852-50-4], the logBB in data set [1] is reported as 1.14. Regarding `Cc1c(O)cccc1C(=O)N[C@@H](CSc1ccccc1)[C@H](O)CN1C[C@H]2CCCC[C@H]2C[C@H]1C(=O)NC(C)(C)C` [159989-64-7], the logBB result in data set [1] is listed as “–0.93”. As to `CC1(C)CCC2(C(=O)OC3OC(COC4OC(CO)C(O)C(O)C4O)C(O)C(O)C3O)CCC3(C)C(=CCC4C5(C)CCC(OC6OCC(O)C(O)C6O)C(C)(CO)C5CCC43C)C2C1` (stereo not shown) [Akebia saponin D], in data set [2], the “ability to cross the BBB (conclusion)” value is listed as “can penetrate the BBB”. For the same compound, the “effect on memory deficits and anxiety symptoms” value in data set [3] is “could significantly ameliorate the memory deficits and anxiety symptoms”.

Take `CC1(C)CC[C@]2(C(=O)O)CC[C@]3(C)C(=CC[C@@H]4[C@@]5(C)C[C@@H](O)[C@H](O)C(C)(C)[C@@H]5CC[C@]43C)[C@@H]2[C@@H]1O` [Arjunic acid]: the “ability to cross the BBB (conclusion)” value in data set [2] is “can penetrate the BBB”. Also, the “presence in brain tissues” value in data set [4] was “present in rat brain tissues”. Regarding `CC(C)=C[C@H]1C[C@](C)(O)[C@@H]2[C@H]3CC[C@@H]4[C@@]5(C)CC[C@H](O[C@@H]6O[C@H](CO)[C@@H](O)[C@H](O[C@@H]7O[C@H](CO)[C@@H](O)[C@H](O)[C@H]7O)[C@H]6O[C@@H]6O[C@@H](CO)[C@H](O)[C@H]6O)C(C)(C)[C@@H]5CC[C@@]4(C)[C@@]34CO[C@@]2(C4)O1` [Bacoside A], the “ability to cross the BBB (conclusion)” value in data set [2] was “can penetrate the BBB”.

For the compound `C[C@@H]1O[C@@H](O[C@H]2[C@H](OC(=O)[C@]34CCC(C)(C)C[C@H]3C3=CC[C@@H]5[C@@]6(C)C[C@H](O)[C@H](O[C@@H]7O[C@H](CO)[C@@H](O)[C@H](O)[C@H]7O)C(CO)(CO)[C@@H]6CC[C@@]5(C)[C@]3(C)C[C@H]4O)OC[C@H](O)[C@@H]2O)[C@H](O)[C@H](O)[C@H]1O[C@@H]1OC[C@@H](O)[C@H](O[C@@H]2OC[C@](O)(CO)[C@H]2O)[C@H]1O` [Platycodin D], in data set [2] (average of all obtained logBB values (biomimetic and computational)), the “average logBB” value is on record as −1.681. The “ability to cross the BBB (conclusion)” value in data set [2] is “does not cross this barrier”. The logBB in data set [2] (span of the obtained values over the methods) was −2 to −1.29. In addition, in data set [5], the “protection from ischemic damage” value is “protects the hippocampal CA1 region pyramidal neurons from an ischemic damage”. Also, the “effect on ethanol-induced memory impairment” value in data set [6] is “could improve ethanol-induced memory impairment”.
